{
  "source": "patent US20210395239A1",
  "about": "(Hoffmann-La Roche Inc., priority 2018, published 2021)",
  "key": {"CYP2D6": {"target": "T1, CYP2D6 (Homo sapiens, UniProt P10635)", "T1 construct": "tissue BD-Gentest 452117; host or cells: human liver microsomes", "T1 sequence (P10635 whole entry)": "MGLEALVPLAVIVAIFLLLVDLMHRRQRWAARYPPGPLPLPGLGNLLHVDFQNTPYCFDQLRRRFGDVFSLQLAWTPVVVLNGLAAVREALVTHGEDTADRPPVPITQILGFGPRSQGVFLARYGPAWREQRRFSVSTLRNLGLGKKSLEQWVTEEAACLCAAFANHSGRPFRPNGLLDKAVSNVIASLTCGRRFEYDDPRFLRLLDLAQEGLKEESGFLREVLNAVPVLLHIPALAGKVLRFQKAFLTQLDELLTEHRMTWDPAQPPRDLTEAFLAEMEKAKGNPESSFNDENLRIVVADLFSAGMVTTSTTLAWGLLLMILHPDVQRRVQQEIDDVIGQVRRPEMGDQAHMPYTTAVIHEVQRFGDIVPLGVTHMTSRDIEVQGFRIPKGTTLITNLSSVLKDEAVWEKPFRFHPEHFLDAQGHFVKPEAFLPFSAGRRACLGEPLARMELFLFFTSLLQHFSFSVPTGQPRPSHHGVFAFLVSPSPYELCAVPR", "experiment": "CYP inhibition assay in human liver microsome, CYP2D6", "assay_type": "in vitro ADME", "settings": "substrate dextromethorphan 5 μM, second value of 2C9/2D6/3A4; for inhibition at 10 min, 10 µM: human, human liver microsomes, probe dextromethorphan 5 μM", "protocol": "This is a high throughput screening assay used for assessment of reversible inhibition of CYP2C9, CYP2D6, and CYP3A4 activity of test compounds in human liver microsome (HLM) in early discovery stage.\n10 mM DMSO stock solutions of test compounds were diluted in DMSO to generate 2 mM intermediate stock solution. 250 nL, of intermediate stock solution were transferred in duplicate into 3 separate 384 well microtitre plates (assay-ready plates). A mixture of HLM and each substrate was made up. 45 μL of HLM substrate mix was then transferred to each well of an assay ready plate and mixed. The negative (solvent) and positive controls (standard inhibitor for each CYP) were included in each assay ready plate. The assay ready plate was warmed to 37° C. in an incubator over 10 minutes. 5 μL pre-warmed NADPH regenerating system was added to each incubation well to start the reaction. Final incubation volume was 50 μL. The assay plate then was placed back in the 37° C. incubator. After incubation (10 minutes for CYP2D6) for 5 minutes, incubates were quenched by addition of 50 μL 100% acetonitrile containing internal standards (400 ng/mL 13C6-4′-OH-Diclofenac, 20 ng/mL D3-Dextrorphan and 20 ng/mL D4-1′OH-Midazolam). The supernatants were collected for RapidFire/MS/MS analysis.\nRapidFire online solid phase extraction/sample injection system (Agilent) coupled with API4000 triple quadrupole mass spectrometer (AB Sciex) were used for sample analysis. The mobile phase composed of acetonitrile and water supplemented with 0.1% formic acid. A C4 solid phase extraction cartridge is used for sample separation. MS detection is achieved in positive ion MRM mode.\nPeak areas for substrate, metabolite and internal standard are determined using the RapidFire integrator software (version 3.6.12009.12296). Peak area ratios (PAR) of metabolite and internal standard (stable-labelled metabolite) are then calculated. The measurement window for each experiment is then defined:\nPAR (0% activity)=average PAR for all incubations containing concentrated inhibitor; Par (100% activity)=average PAR for all incubations containing no inhibitor (DMSO controls); % Activity (test inhibitor)=[PAR (test inhibitor)−PAR (0% activity)]/[PAR (100% activity)−PAR (0% activity)]; % Inhibition (test inhibitor)=100-% Activity (test inhibitor)."}, "hERG channel": {"target": "T2, hERG channel (Homo sapiens, UniProt Q12809)", "T2 construct": "expressed in transfected cells; host or cells: CHO (Chinese hamster ovary)", "T2 sequence (Q12809 whole entry)": "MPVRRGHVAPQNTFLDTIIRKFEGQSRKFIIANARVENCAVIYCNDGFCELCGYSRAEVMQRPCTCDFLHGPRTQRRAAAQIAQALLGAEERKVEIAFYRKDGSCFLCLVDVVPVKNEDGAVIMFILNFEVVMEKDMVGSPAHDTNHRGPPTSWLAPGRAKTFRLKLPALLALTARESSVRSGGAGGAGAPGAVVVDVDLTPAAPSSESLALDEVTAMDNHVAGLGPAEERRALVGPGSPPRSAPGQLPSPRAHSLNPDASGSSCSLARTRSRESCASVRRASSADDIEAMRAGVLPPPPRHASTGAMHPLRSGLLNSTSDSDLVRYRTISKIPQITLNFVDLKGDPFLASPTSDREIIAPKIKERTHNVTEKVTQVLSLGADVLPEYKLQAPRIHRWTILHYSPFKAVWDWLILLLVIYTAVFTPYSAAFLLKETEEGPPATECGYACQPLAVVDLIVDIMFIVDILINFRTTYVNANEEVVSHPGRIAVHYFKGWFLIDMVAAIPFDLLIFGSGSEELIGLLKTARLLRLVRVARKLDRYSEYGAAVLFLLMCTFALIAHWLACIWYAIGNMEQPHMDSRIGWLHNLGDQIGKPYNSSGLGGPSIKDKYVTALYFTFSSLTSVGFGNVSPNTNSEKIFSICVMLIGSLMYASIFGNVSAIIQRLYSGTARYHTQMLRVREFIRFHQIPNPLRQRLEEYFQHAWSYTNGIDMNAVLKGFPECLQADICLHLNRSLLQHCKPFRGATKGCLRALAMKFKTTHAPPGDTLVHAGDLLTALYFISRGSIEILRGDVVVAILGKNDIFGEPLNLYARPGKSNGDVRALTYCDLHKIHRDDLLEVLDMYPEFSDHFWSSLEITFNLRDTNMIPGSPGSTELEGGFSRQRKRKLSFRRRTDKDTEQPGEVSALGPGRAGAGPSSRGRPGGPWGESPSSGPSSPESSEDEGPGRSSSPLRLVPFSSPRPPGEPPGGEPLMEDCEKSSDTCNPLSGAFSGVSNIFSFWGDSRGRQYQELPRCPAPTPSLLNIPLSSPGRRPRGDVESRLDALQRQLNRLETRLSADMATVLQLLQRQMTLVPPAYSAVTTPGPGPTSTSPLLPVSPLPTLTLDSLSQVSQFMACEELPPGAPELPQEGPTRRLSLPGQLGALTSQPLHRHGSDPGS", "experiment": "hERG channel inhibition assay (patch-clamp, CHOhERG cells)", "assay_type": "cell-based", "settings": "for IC20: human, CHO cells stably expressing hERG (CHOhERG); for IC20 / IC50: patch-clamp, CHOhERG cells; for hERG IC20/TLR7 IC50 / hERG IC20/TLR8 IC50 / hERG IC20/TLR9 IC50: safety ratio", "in_short": "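Whole-cell voltage-clamp recordings used CHO cells stably expressing human hERG, with IKhERG evoked by a voltage protocol at 0.1 Hz. Increasing compound concentrations were applied, each for 3–10 min to reach steady state, and current amplitude and kinetics were expressed relative to control (100%).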"}},
  "data": [
    {"compound": "COC1CNC[C@H]1Nc1cccc(N2CCN(C[C@H]3CN(c4ccc(C#N)c5ncccc45)C[C@@H](C)O3)CC2)n1", "note": "(stereo in doubt) [Example 39, 5-[(2S,6R)-2-[[4-[6-[[(3R,4R)-4-methoxypyrrolidin-3-yl]amino]-2-pyridyl]piperazin-1-yl]methyl]-6-methyl-morpholin-4-yl]quinoline-8-carbonitrile]", "values": [
      {"measurement": "inhibition at 10 min, 10 µM", "setting": "CYP2D6", "result": -4, "unit": "%"}
    ]},
    {"compound": "COC1CN(c2nccc(N3CCN(C[C@H]4CN(c5ccc(C#N)c6ncccc56)C[C@@H](C)O4)CC3)n2)C[C@H]1N", "note": "(stereo in doubt) [Example 52, 5-[(2S,6R)-2-[[4-[2-[(3R,4R)-3-amino-4-methoxy-pyrrolidin-1-yl]pyrimidin-4-yl]piperazin-1-yl]methyl]-6-methyl-morpholin-4-yl]quinoline-8-carbonitrile]", "values": [
      {"measurement": "CYP (%) 2D6 inhibition", "setting": "CYP2D6", "result": 10.5, "unit": "%"}
    ]},
    {"compound": "CO[C@H]1CN(c2nccc(N3CCN(C[C@H]4CN(c5ccc(C#N)c6ncccc56)C[C@@H](C)O4)CC3)n2)CC1N", "note": "(stereo in doubt) [Example 53, 5-[(2S,6R)-2-[[4-[2-[(3S,4S)-3-amino-4-methoxy-pyrrolidin-1-yl]pyrimidin-4-yl]piperazin-1-yl]methyl]-6-methyl-morpholin-4-yl]quinoline-8-carbonitrile]", "values": [
      {"measurement": "CYP (%) 2D6 inhibition", "setting": "CYP2D6", "result": 21.5, "unit": "%"}
    ]},
    {"compound": "C[C@@H]1CN(c2ccc(C#N)c3ncccc23)C[C@H](CN2CCN(c3cncc(N4CCNCC4)c3)CC2)O1", "note": "[Example 7, 5-[(2R,6S)-2-methyl-6-[[4-(5-piperazin-1-yl-3-pyridyl)piperazin-1-yl]methyl]morpholin-4-yl]quinoline-8-carbonitrile]", "values": [
      {"measurement": "IC20", "setting": "hERG channel", "result": "> 10", "unit": "µM"},
      {"measurement": "IC50", "setting": "hERG channel", "result": "> 20", "unit": "µM"},
      {"measurement": "hERG IC20/TLR7 IC50", "setting": "hERG channel", "result": ">294"},
      {"measurement": "hERG IC20/TLR8 IC50", "setting": "hERG channel", "result": ">1111"},
      {"measurement": "hERG IC20/TLR9 IC50", "setting": "hERG channel", "result": ">196"},
      {"measurement": "inhibition at 10 min, 10 µM", "setting": "CYP2D6", "result": 7.5, "unit": "%"}
    ]},
    {"compound": "C[C@@H]1CN(c2ccc(C#N)c3ncccc23)C[C@H](CN2CCN(c3ccc(N4CCNCC4)cn3)CC2)O1", "note": "[Example 8, 5-[(2R,6S)-2-methyl-6-[[4-(5-piperazin-1-yl-2-pyridyl)piperazin-1-yl]methyl]morpholin-4-yl]quinoline-8-carbonitrile]", "values": [
      {"measurement": "inhibition at 10 min, 10 µM", "setting": "CYP2D6", "result": 6, "unit": "%"}
    ]},
    {"compound": "C[C@@H]1CN(c2ccc(C#N)c3ncccc23)C[C@H](CN2CCN(c3cc(N4CCNCC4)ccn3)CC2)O1", "note": "[Example 9, 5-[(2R,6S)-2-methyl-6-[[4-(4-piperazin-1-yl-2-pyridyl)piperazin-1-yl]methyl]morpholin-4-yl]quinoline-8-carbonitrile]", "values": [
      {"measurement": "inhibition at 10 min, 10 µM", "setting": "CYP2D6", "result": 2, "unit": "%"}
    ]},
    {"compound": "C[C@@H]1CN(c2ccc(C#N)c3ncccc23)C[C@H](CN2CCC(C#N)(c3ccc(N4CCNCC4)cc3)CC2)O1", "note": "[Example 11, 5-[(2S,6R)-2-[[4-cyano-4-(4-piperazin-1-ylphenyl)-1-piperidyl]methyl]-6-methyl-morpholin-4-yl]quinoline-8-carbonitrile]", "values": [
      {"measurement": "inhibition at 10 min, 10 µM", "setting": "CYP2D6", "result": 0, "unit": "%"}
    ]},
    {"compound": "C[C@@H]1CN(c2ccc(C#N)c3ncccc23)C[C@H](CN2CCN(c3nccc(N4CCNCC4)n3)CC2)O1", "note": "[Example 14, 5-[(2R,6S)-2-methyl-6-[[4-(4-piperazin-1-ylpyrimidin-2-yl)piperazin-1-yl]methyl]morpholin-4-yl]quinoline-8-carbonitrile]", "values": [
      {"measurement": "inhibition at 10 min, 10 µM", "setting": "CYP2D6", "result": 16.5, "unit": "%"}
    ]},
    {"compound": "C[C@@H]1CN(c2ccc(C#N)c3ncccc23)C[C@H](CN2CCN(c3ccnc(N4CCNCC4)n3)CC2)O1", "note": "[Example 15, 5-[(2R,6S)-2-methyl-6-[[4-(2-piperazin-1-ylpyrimidin-4-yl)piperazin-1-yl]methyl]morpholin-4-yl]quinoline-8-carbonitrile]", "values": [
      {"measurement": "IC20", "setting": "hERG channel", "result": "> 10", "unit": "µM"},
      {"measurement": "IC50", "setting": "hERG channel", "result": "> 20", "unit": "µM"},
      {"measurement": "hERG IC20/TLR7 IC50", "setting": "hERG channel", "result": ">1429"},
      {"measurement": "hERG IC20/TLR8 IC50", "setting": "hERG channel", "result": ">3333"},
      {"measurement": "hERG IC20/TLR9 IC50", "setting": "hERG channel", "result": ">278"},
      {"measurement": "inhibition at 10 min, 10 µM", "setting": "CYP2D6", "result": -2.5, "unit": "%"}
    ]},
    {"compound": "C[C@@H]1CN(c2ccc(C#N)c3ncccc23)C[C@H](CN2CCN(c3ccc([C@@H]4CNCCO4)cc3)CC2)O1", "note": "[Example 19, 5-[(2R,6S)-2-methyl-6-[[4-[4-[(2R)-morpholin-2-yl]phenyl]piperazin-1-yl]methyl]morpholin-4-yl]quinoline-8-carbonitrile]", "values": [
      {"measurement": "inhibition at 10 min, 10 µM", "setting": "CYP2D6", "result": 0.5, "unit": "%"}
    ]},
    {"compound": "C[C@@H]1CN(c2ccc(C#N)c3ncccc23)C[C@H](CN2CCN(c3cc(N4CCN(C)CC4)ncn3)CC2)O1", "note": "[Example 21, 5-[(2R,6S)-2-methyl-6-[[4-[6-(4-methylpiperazin-1-yl)pyrimidin-4-yl]piperazin-1-yl]methyl]morpholin-4-yl]quinoline-8-carbonitrile]", "values": [
      {"measurement": "inhibition at 10 min, 10 µM", "setting": "CYP2D6", "result": 2.5, "unit": "%"}
    ]},
    {"compound": "C[C@@H]1CN(c2ccc(C#N)c3ncccc23)C[C@H](CN2CCN(c3ccnc(N4CCN(C)CC4)n3)CC2)O1", "note": "[Example 22, 5-((2R,6S)-2-methyl-6-((4-(2-(4-methylpiperazin-1-yl)pyrimidin-4-yl)piperazin-1-yl)methyl)morpholino)quinoline-8-carbonitrile]", "values": [
      {"measurement": "inhibition at 10 min, 10 µM", "setting": "CYP2D6", "result": 2, "unit": "%"}
    ]},
    {"compound": "C[C@@H]1CN(c2ccc(C#N)c3ncccc23)C[C@H](CN2CCN(c3ccnc(N[C@H]4CNC[C@H]4F)n3)CC2)O1", "note": "[Example 24, 5-[(2S,6R)-2-[[4-[2-[[(3S,4R)-4-fluoropyrrolidin-3-yl]amino]pyrimidin-4-yl]piperazin-1-yl]methyl]-6-methyl-morpholin-4-yl]quinoline-8-carbonitrile]", "values": [
      {"measurement": "inhibition at 10 min, 10 µM", "setting": "CYP2D6", "result": 6, "unit": "%"}
    ]},
    {"compound": "C[C@@H]1CN(c2ccc(C#N)c3ncccc23)C[C@H](CN2CCN(c3ccnc(N4CCNCC(O)C4)n3)CC2)O1", "note": "(stereo partly drawn) [Example 25, 5-[(2S,6R)-2-[[4-[2-(6-hydroxy-1,4-diazepan-1-yl)pyrimidin-4-yl]piperazin-1-yl]methyl]-6-methyl-morpholin-4-yl]quinoline-8-carbonitrile]", "values": [
      {"measurement": "inhibition at 10 min, 10 µM", "setting": "CYP2D6", "result": 5.5, "unit": "%"}
    ]},
    {"compound": "C[C@@H]1CN(c2ccc(C#N)c3ncccc23)C[C@H](CN2CCN(c3ccnc(N4CCN[C@@H](CO)C4)n3)CC2)O1", "note": "[Example 29, 5-[(2S,6R)-2-[[4-[2-[(3R)-3-(hydroxymethyl)piperazin-1-yl]pyrimidin-4-yl]piperazin-1-yl]methyl]-6-methyl-morpholin-4-yl]quinoline-8-carbonitrile]", "values": [
      {"measurement": "inhibition at 10 min, 10 µM", "setting": "CYP2D6", "result": 8.5, "unit": "%"}
    ]},
    {"compound": "C[C@@H]1CN(c2ccc(C#N)c3ncccc23)C[C@H](CN2CCN(c3cccc(NC4CNC4)n3)CC2)O1", "note": "[Example 38]", "values": [
      {"measurement": "IC20", "setting": "hERG channel", "result": 5.5, "unit": "µM"},
      {"measurement": "IC50", "setting": "hERG channel", "result": "> 20", "unit": "µM"},
      {"measurement": "hERG IC20/TLR7 IC50", "setting": "hERG channel", "result": 344},
      {"measurement": "hERG IC20/TLR8 IC50", "setting": "hERG channel", "result": 500},
      {"measurement": "hERG IC20/TLR9 IC50", "setting": "hERG channel", "result": 57},
      {"measurement": "inhibition at 10 min, 10 µM", "setting": "CYP2D6", "result": 20.5, "unit": "%"}
    ]},
    {"compound": "COC1CN(c2ccc(N3CCN(C[C@H]4CN(c5ccc(C#N)c6ncccc56)C[C@@H](C)O4)CC3)cn2)CC1N", "note": "(stereo partly drawn) [Example 43, 5-[(2S,6R)-2-[[4-[6-(3-amino-4-methoxy-pyrrolidin-1-yl)-3-pyridyl]piperazin-1-yl]methyl]-6-methyl-morpholin-4-yl]quinoline-8-carbonitrile]", "values": [
      {"measurement": "inhibition at 10 min, 10 µM", "setting": "CYP2D6", "result": -11, "unit": "%"}
    ]},
    {"compound": "C[C@@H]1CN(c2ccc(C#N)c3ncccc23)C[C@H](CN2CCN(c3nc(N4CCNCC4)ncc3F)CC2)O1", "note": "[Example 45, 5-[(2S,6R)-2-[[4-(5-fluoro-2-piperazin-1-yl-pyrimidin-4-yl)piperazin-1-yl]methyl]-6-methyl-morpholin-4-yl]quinoline-8-carbonitrile]", "values": [
      {"measurement": "inhibition at 10 min, 10 µM", "setting": "CYP2D6", "result": 5, "unit": "%"}
    ]},
    {"compound": "C[C@@H]1CN(c2ccc(C#N)n3ncc(F)c23)C[C@H](CN2CCN(c3ccc(N4CC5(CN(C)C5)C4)nc3)CC2)O1", "note": "[Example 170, 3-fluoro-4-[(2R,6S)-2-methyl-6-[[4-[6-(6-methyl-2,6-diazaspiro[3.3]heptan-2-yl)-3-pyridyl]piperazin-1-yl]methyl]morpholin-4-yl]pyrazolo[1,5-a]pyridine-7-carbonitrile]", "values": [
      {"measurement": "inhibition at 10 min, 10 µM", "setting": "CYP2D6", "result": 0, "unit": "%"}
    ]}
  ]
}
